The nature of data set [1]: Rat pharmacokinetics: plasma 4-OH-IF and chloroacetaldehyde after i.v. IF, with P450 inducer/inhibitor pretreatment. From the text: British Joumal of Cancer (1998) 77(11), 1768-1776 ? […] Both reactions are catalysed by multiple liver P450 enzymes in vitro in isolated rat liver microsomes. […] The identification of those P450s that contribute specifically to these individual meta- bolic pathways is of particular interest, given the large degree of interindividual differences in the catalytic activities of specific P450s seen in human liver samples (Shimada et al, 1994). […] This complexation, in turn, results in an inhibition of these P450s. Inhibition of P450 2B 1 by non-covalent interaction with the haem ligand metyrapone (MTP) has also been reported (Waxman and Walsh, 1983; Halpert, 1995). […] MTP and other specialty chemi- cals were of the highest grade commercially available and were obtained from Aldrich Chemical (Milwaukee, WI, USA). Animals Male Fischer 344 rats (160-250 g; 7-11 weeks of age) were purchased from Taconic (Germantown, NY, USA). Animals were maintained in individual plastic cages under conditions of constant temperature (22?C), lighting (12-h dark-light cycle) and humidity, and provided with food and water ad libitum, in accordance with the National Institutes of Health Guide for the Care and Use of Laboratory Animals. Rat pharmacokinetics Surgery For kinetic studies, rats were implanted with an indwelling cannula (silicone medical grade/polyethylene tubing) in the right jugular vein to allow blood sampling and drug administration. Surgery was performed under ketamine (Ketaset 95 mg kg-') and xylazine (Rompun 12 mg kg-') anaesthesia 3-4 days before the kinetic experiment. After cannulation, a Rodent Infusion Set obtained from Lomin (Quebec, Canada) was used to withdraw blood samples at appropriate time intervals. Catheters were flushed daily with heparinized saline (20 U ml-') to prevent clotting. […] The sample was then diluted in 0.9% saline to the final required volume and the pH adjusted to pH 4 with 1 M sodium hydroxide. […] At each time point, the rats were given an injection of 0.5 ml of 0.9% saline through the catheter to replace the volume of blood withdrawn. […] Data shown at each pharmacokinetic sampling point are means ? s.d. values. […] Plasma samples (100 gl of supematant) were removed and stored at -80?C until analysis. Plasma proteins were precipitated by successive addition of 40 gl of ice-cold 5.5% (w/v) zinc sulphate, 40 gl of ice-cold saturated barium hydroxide and 20 gl of ice-cold 0.01 M hydrochloric acid. Samples were centrifuged for 15 min at 16 000 g, and 125 gl of the supernatant was added to 67 gl of a solution containing 6 mg of 3-amino- phenol and 6 mg of hydroxylamine hydrochloride dissolved in 1 ml of 1 M hydrochloric acid. Samples were heated at 90?C for 30 min in the dark, then allowed to cool to room temperature and diluted with 408 pl of distilled water before reading the fluores- cence (350 nm excitation and 515 nm emission) on a Shimadzu RF15 spectrofluorophotometer. […] CA present in the plasma samples was derivatized with thiourea to produce 2-aminothiazole, which was assayed by high-performance liquid chromatography (HPLC) after solid- phase extraction by a modification of published methods (Yu and Waxman, 1996). Briefly, a 208-gl aliquot of heparinized blood was immediately mixed with 1 mm formaldehyde to stabilize CA, and then deproteinized with 25.2 pl of ice-cold 70% perchloric acid. After centrifugation (16 000 g for 4 min) at room temperature, 140 pl of the supernatant was added to 21 pl of 100 mM thiourea. […] The derivatized samples were stored at -80?C until analysis (usually within 2 weeks). The 2-aminothia- zole product was isolated using a 100-mg Bond Elut SCX cation- exchange column (Varian), and then eluted, evaporated in vacuo in a Speed Vac and analysed by HPLC on an Alltech Econosphere C18 column with an absorbance detector operating at a wavelength of 254 nm.

The test system of another data set is rat liver microsomes. Also on record: method as in Yu and Waxman, 1996. The settings on record: ref Yu and Waxman, 1996, cited from earlier work.
For the next data set, the target named is T1, P450 2B1 (Rattus norvegicus, UniProt P00176).
T1 sequence (P00176 1-491): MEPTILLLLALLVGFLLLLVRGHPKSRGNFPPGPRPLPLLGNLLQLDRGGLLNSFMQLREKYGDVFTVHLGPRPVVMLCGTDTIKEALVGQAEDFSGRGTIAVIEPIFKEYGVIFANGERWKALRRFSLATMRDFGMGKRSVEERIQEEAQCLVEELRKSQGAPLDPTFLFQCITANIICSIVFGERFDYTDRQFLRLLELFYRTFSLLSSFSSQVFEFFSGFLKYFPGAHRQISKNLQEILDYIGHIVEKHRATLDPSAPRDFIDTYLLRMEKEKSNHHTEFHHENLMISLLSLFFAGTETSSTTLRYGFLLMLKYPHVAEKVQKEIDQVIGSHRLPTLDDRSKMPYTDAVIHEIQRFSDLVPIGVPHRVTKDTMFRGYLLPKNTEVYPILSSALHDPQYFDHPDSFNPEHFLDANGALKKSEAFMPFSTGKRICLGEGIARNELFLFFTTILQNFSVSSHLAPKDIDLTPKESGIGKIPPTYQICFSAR
The settings on record: isolated liver microsomes, vs untreated.

Where [2] appears, read: after IF 100 mg kg-1 i.v., DEX 50 mg kg-1 for 3 days.
Where [3] appears, read: after IF 100 mg kg-1 i.v., PB20 rats given MTP 5 min before IF.

Read-outs that look alike come from different tables or passages of the source.

In general, Cmax refers to the highest concentration seen after dosing.

In the case of `O=P1(NCCCl)OCCC(O)N1CCCl` (stereo not drawn) [4-OH-IF, 4-hydroxy IF], the tmax in data set [1] (setting [2]) and in data set [1] (setting [3]) was 4 min throughout. Moreover, the “tmax (time to reach peak plasma concentration)” value in data set [1] (after IF 100 mg kg-1 i.v., untreated (UT) rats) was 4 to 10 min.

Take `O=CCCl` [CA, chloroacetaldehyde]: the tmax came out at 10 min in data set [1] (setting [2]); 60 min in data set [1] (setting [3]); 4 min in data set [1] (after IF 100 mg kg-1 i.v., PB-pretreated rats (PB20 and PB80, Figure 1B and C)). Moreover, the Cmax in data set [1] (plasma, IF 100 mg kg-1 i.v., PB80+TAO group (TAO 500 mg kg-1 2 h before IF), n=3) turned out to be 172 µM.

Regarding `O=P1(NCCCl)OCCCN1CCCl` (stereo not drawn) [IF, ifosfamide], the “extent of in vitro IF N-dechloroethylation, of total metabolism” value with rat liver microsomes (liver microsomes of DEX-treated male rats) is on record as 24%; in the data set on rat liver microsomes (liver microsomes of male rats without DEX treatment) it was 47%.

Turning to `Cc1ccccc1C(OCCN(C)C)c1ccccc1` (stereo not drawn) [ORP, orphenadrine, reference compound], the “increase in CA half-life” value in data set [1] (male, Fischer 344, rat, in vivo, ip) is “approximately 30%”.

Turning to `CCC1(c2ccccc2)C(=O)NC(=O)NC1=O` [PB, phenobarbital], the “induction of androstenedione 16β-hydroxylase activity” value is recorded as “fivefold” at P450 2B1 (PB20 regimen) and 7.5 fold at P450 2B1 (PB80 regimen).

The values above are taken from paper PMC2150313 (British Journal of Cancer, 1998).
